Reference: publication PMC7112239, “Latency reversal agents modulate HIV antigen processing and presentation to CD8 T cells” (PLoS Pathogens, 2020)
Where no end group is shown, it is not given here.

What was measured:
[1] = test system: CD4 T cell extracts (antigen processing machinery); assay: In vitro degradation of HIV-1 Gag p24-10-35m in extracts of LRA-treated CD4 T cells, mass spectrometry; type: biochemical, human; details: for HLA-B57 KF11 epitope production: LRA-treated extracts over matched DMSO, n = 6–10 donors
Description: (§1) Romidepsin, Bryostatin, Disulfiram (Sigma), Ingenol-3-angelate (Santa Cruz Biotechnologies), Panobinostat (Selleckchem) were dissolved in DMSO (Fisher Scientific) to make stock solutions. Fresh aliquots were used for each experiment. The final concentrations for each LRA in cell culture were as follows: Panobinostat (30 nM), Romidepsin (40 nM), Disulfiram (500 nM), Bryostatin (10 nM), Ingenol-3-angelate (50 nM). Maximum in vitro stimulation was achieved by addition of anti-CD3/CD28 magnetic beads (Fisher Scientific) at a ratio of 1:1 bead to T cell as in [37]. For combination treatment, both drugs were added at the same time.
(§2) 2 nmol of pure peptide (MGH peptide core facility or Biosynthesis, Texas) was degraded with 15 ug of CD4 T cell extracts at 37°C in pH7.4 degradation buffer as in [37, 40]. Aliquots were taken at various time points and the reaction was stopped by addition of 5% (v/v) of Formic acid (Thermo Scientific) and the degradation products were purified by trichloroacetic acid (Sigma) precipitation (final concentration 5% (v/v)) and identified by in-house mass spectrometry as previously described. Briefly, equal amounts of the purified degradation products were injected into a NanoLC Ultra-HPLC (Eksigent) for salt removal and separation, then online nanosprayed into an LTQ Orbitrap Discovery mass spectrometer (Thermo) for identification. Peptides were separated in a NanoLC column (ChromXP C18, 3 um 120Å; Eksigent) over a gradient of 2–60% buffer B (buffer A: 0.1% (v/v) formic acid in MS-grade water (Fisher Scientific)); buffer B: 0.1% (v/v) formic acid in MS-grade acetonitrile (Fisher Scientific) in 95 min with a conserved flow rate of 250 nl/min. Mass spectra were recorded in the 370–2000 Daltons range. In the tandem mass spectrometry mode, the eight most intense peaks were selected with a window of 1 Dalton and fragmented using helium as collision gas and a voltage of 35 V. Peaks in the mass spectra were searched against the source peptide databases with Proteome Discoverer (version 1.3; Thermo) and quantitatively analyzed. For a given peptide, the integrated area under the peak is proportional to the relative abundance of the peptide in the sample. Each sample was run on the mass spectrometer at least twice.

[2] = test system: CD4 T cell extracts (antigen processing machinery); assay: In vitro degradation of HIV-1 Gag p24-161-24m in extracts of LRA-treated CD4 T cells, mass spectrometry; type: biochemical, human
Description: as §1, §2

[3] = test system: post-proteasomal aminopeptidases; assay: Aminopeptidase hydrolytic activity in live CD4 T cells (fluorogenic H-Leu-AMC); type: cell-based, human; details: live primary CD4 T cells of healthy donors, 48 h treatment, versus DMSO; Bryostatin 10 nM, Panobinostat 30 nM; 50 μM H-Leu-AMC, 37°C; n = 8
Description: as §1
The proteasome hydrolytic activities caspase-like (50 μM Z-LLE-AMC; EMD Millipore), tryptic (50 μM Boc-LRR-AMC; Bachem), chymotryptic (50 μM Suc-LLVY-AMC; Bachem), post-proteasomal aminopeptidases (50 μM H-Leu-AMC; Bachem) were measured in 25x10^3 live CD4 T cells at given time points after drug treatment with peptidase-specific fluorogenic substrates as in [37, 40]. […] The rate of fluorescence emission, which is proportional to the proteolytic activity, was measured every 600 s at 37°C in a Victor-3 Plate Reader (Perkin Elmer), as in [37].

[4] = test system: HIV-infected HLA-B57+ CD4 T cells; assay: Endogenous processing and presentation assay: CD107a degranulation of epitope-specific CD8 T cells and peptide equivalent; type: cell-based, human; details: for score of peptide presentation efficiency (peptide equivalent over HIV infection rate) at 24 hours / equivalent peptide presented (TW10, ISW9, KF11) at 24 hpi: 24 hpi; for score of peptide presentation efficiency (peptide equivalent over HIV infection rate) at 24 hours: all 3 epitopes; for equivalent peptide presented (TW10, ISW9, KF11) at 24 hpi: radar plots
proteasome = details: cited from earlier work
Text: Most LRAs selected so far to relieve transcriptional blocks act on signaling pathways and histone acetylation but are not specific to HIV LTR promoters or targeted to the reservoirs, thus their effect should be considered globally on genes and cellular machineries of cell populations.

primary CD4 T cells = assay: CD25 and CD69 surface activation markers by flow cytometry; type: cell-based, human; details: 6, 24 and 48 h post treatment
Description: as §1
Untreated or LRA-treated CD4 T cells were stained with CD4-BV605, CD3-Pacific Blue (BD Biosciences) and HLA-ABC-AlexaFluor700 (Biolegend) to assess purity (95–99%) and CD38-FITC, CD69-PE, CD25-PerCpCy5.5 and HLA-DR-APC (BD Biosciences) to measure surface activation marker levels. Cellular activation levels were calculated by first gating on the double negative population of CD25 and CD69 of the non-treated sample on live, CD4- and CD3-positive cells and applying the same gates to the LRA-treated and CD3/CD28-stimulated samples as done in [37]. A similar gating strategy was applied to determine the proportion of CD38- and HLA-DR-positive CD4 T cells.

[5] = cited from earlier work
Text: We similarly assessed the processing of another HIV fragment, p24-161-24mer, after LRAs or aCD3/CD28 treatments (Fig 3A).

[6] = extracts of CD4 T cells treated 48 h, 120-minute degradation, representative experiment
[7] = over matched DMSO, n = 8–11 healthy donors

## CCC/C=C/C=C/C(=O)O[C@H]1/C(=C/C(=O)OC)C[C@H]2C[C@H]([C@@H](C)O)OC(=O)C[C@H](O)C[C@@H]3C[C@H](OC(C)=O)C(C)(C)[C@](O)(C[C@@H]4C/C(=C/C(=O)OC)C[C@H](/C=C/C(C)(C)[C@]1(O)O2)O4)O3 [Bryostatin]
[1]; [6]
  amount of fragments starting at V2, V15, V17 of p24-10-35m: reduced
[1]; second half of the sequence, representative experiment
  difference in amount of 8-11aa peptides of p24-10-35m versus DMSO- or Panobinostat-treated extracts: up to 5 times
[2]; first half of the sequence, representative experiment
  increase of production of 8-11aa peptides in p24-161-24m: 2- to 5 fold
[2]; n = 4–10 donors
  ratio of 8-11aa peptides of p24-161-24m produced in treated over DMSO treated cells: significantly increased
[2]; [7]
  number of significantly changed N- or C-terminal cleavage sites, p24-161-24mer: 6
[3]
  aminopeptidase hydrolytic activities, average fold change: 1.6 fold
[4]
  score of peptide presentation efficiency (peptide equivalent over HIV infection rate) at 24 hours: lowest
  equivalent peptide presented (TW10, ISW9, KF11) at 24 hpi: among the lowest
[4]; 24 to 72 hpi
  efficiency of peptide presentation overtime: increased
proteasome
  proteasome activities in fibroblasts: can enhance proteasome activities

## CCN(CC)C(=S)SSC(=S)N(CC)CC [Disulfiram]
[1]
  HLA-B57 KF11 epitope production: decreased
[1]; treated extracts over matched DMSO, n = 2–6 donors
  QW11 epitope production: increased
proteasome; effect on NF-κB
  proteasome activities in cell lines: inhibited proteasome activities
Primary CD4 T cells
  proportion of CD25+ and/or CD69+ primary CD4 T cells compared to DMSO-treated cells: Neither HDACi nor disulfiram changed the proportion

## CC[C@H](C)[C@H](NC(=O)[C@@H](NC(=O)[C@H](CCC(=O)O)NC(=O)[C@@H]1CCCN1C(=O)[C@H](CO)NC(=O)[C@H](Cc1ccccc1)NC(=O)[C@H](C)NC(=O)[C@@H](N)CCCCN)C(C)C)C(=O)N1CCC[C@H]1C(=O)N[C@@H](CCSC)C(=O)N[C@@H](Cc1ccccc1)C(=O)O [KF11]
[5]
  degradability in the cytosol of primary cells: less degradable

## Cc1[nH]c2ccccc2c1CCNCc1ccc(/C=C/C(=O)NO)cc1 [Panobinostat]
[1]
  HLA-B57 KF11 epitope production: unchanged
[1]; [6]
  amount of fragments starting at V2, V15, V17 of p24-10-35m: increased
[1]; extracts of CD4 T cells treated 48 h, 120-minute degradation, representative experiment, versus DMSO
  reduction of fragments starting at H3 or N12 of p24-10-35m: 10 fold
[1]; treated extracts over matched DMSO, n = 4–9 donors
  HLA-B57 ISW9 epitope production: increased
[2]; [7]
  peptide production at each aa of p24-161-24mer: decreased peptide production at most aa
[2]; representative experiment
  production of 8-11aa peptides throughout the p24-161-24m sequence: reduced
[3]
  aminopeptidase hydrolytic activities, average fold change: 0.78 fold
[4]
  KF11 and ISW9 peptide equivalent displayed by HIV-infected CD4 T cells: reduction of peptide presentation
  score of peptide presentation efficiency (peptide equivalent over HIV infection rate) at 24 hours: second highest
  equivalent peptide presented (TW10, ISW9, KF11) at 24 hpi: highest KF11 and ISW9 peptide presentations

## ISPRTLNAW [ISW9]
[5]
  degradability in the cytosol of primary cells: among the most degradable
